The values that follow come from patent US5955520A, “Photochromic indeno-fused naphthopyrans” (PPG Industries, Inc., priority 1996, dated 1999).

A short description of data set [1]: photochromic response rates on an optical bench (test squares). The settings on record: for ΔOD @ Saturation: UV exposure continued for 20 minutes; for ΔOD @ Saturation / Sensitivity ΔOD/min: polymer test square, 75° F.; for Sensitivity ΔOD/min: first five (5) seconds of UV exposure, expressed per minute, 1.5 times 10^-3 molal; for Bleach Rate T 1/2: time for absorbance to reach one half the highest absorbance after removal of activating light, room temperature (75° F., 23.9° C.). It is filed as physicochemical. The procedure: (§1) Testing was done with the Example 1 and Comparative Example 1 photochromic naphthopyrans incorporated into polymeric samples by the following method. The quantity of naphthopyran calculated to yield a 1.5 times 10^-3 molal solution was added to a flask containing 50 grams of a monomer blend of 4 parts ethoxylated bisphenol A dimethacrylate (BPA 2EO DMA), 1 part poly(ethylene glycol) 600 dimethacrylate, and 0.033 weight percent 2,2'-azobis(2-methyl proprionitrile) (AIBN). The naphthopyran was dissolved into the monomer blend by stirring and gentle heating, if necessary. After a clear solution was obtained, it was poured into a flat sheet mold having the interior dimensions of 2.2 mm×6 inches (15.24 cm)×6 inches (15.24 cm). The mold was sealed and placed in a horizontal air flow, programmable oven set to increase the temperature from 40° C. to 95° C. over a 5 hour interval, hold the temperature at 95° C. for 3 hours and then lower it to 60° C., for at least 2 hours before the end of the curing cycle. After the mold was opened, the polymer sheet was cut using a diamond blade saw into 2 inch (5.1 centimeters) test squares.
The photochromic test squares of Part A were tested for photochromic response rates on an optical bench. Prior to testing on the optical bench, the photochromic test squares were exposed to 365 nanometer ultraviolet light for about 15 minutes to activate the photochromic compounds and then placed into a 76° C. oven for about 15 minutes to bleach the photochromic compounds. The test squares were then cooled to room temperature, exposed to fluorescent room lighting for at least 2 hours and then kept covered for at least 2 hours prior to testing on an optical bench maintained at 75° F. (23.90° C.).
The optical bench comprises a 150 watt Xenon arc lamp, a tungsten lamp, power supplies for both lamps, condensing lenses as needed to maintain collimated light beams from both lamps, a remote controlled shutter, a copper sulfate bath acting as a heat sink for the arc lamp, a Schott WG-320 nm cut-off filter which removes short wavelength radiation, neutral density filter(s), a sample holder in which the sample to be tested is inserted, a photopic filter, light detector, and radiometer assembly, a strip chart recorder, and a means for maintaining the alignment of the aforestated components during testing.
Change in optical density (Δ OD) of a sample was determined by inserting a photochromic test sample in the bleached state into the sample holder, adjusting the transmittance scale to 100%, opening the shutter from the Xenon lamp to provide ultraviolet radiation to change the sample from the bleached state to an activated (darkened) state, measuring the transmittance through the sample. The transmittance was measured by directing a beam of light from the tungsten lamp at a small angle normal to the surface of the sample, through the sample, and to a photopic filter, light detector and radiometer assembly. The photopic filter passes wavelengths such that the detector mimics the response of the human eye and produces output signals that are processed by the radiometer. The change in optical density was calculated according to the formula Δ OD=log(100/%Ta) where %Ta is the percent transmittance in the activated state and the logarithm is to the base 10.
The Δ OD/Min, which represents the sensitivity of the photochromic compound's response to UV light, was measured over the first five (5) seconds of UV exposure, then expressed on a per minute basis. The saturation optical density (OD) was taken under identical conditions as the Δ OD/Min, except UV exposure was continued for 20 minutes. The lambda max (Vis) is the wavelength in the visible spectrum at which the maximum absorption of the activated (colored) form of the photochromic compound in the test square occurs. […]

A short description of data set [2]: UV/Visible spectrophotometer test of photochromic test squares (lambda max, molal absorptivity). It is filed as physicochemical. As to conditions: for λ max Vis (major) / λ max Vis (minor): activated (colored) form; for λ max Vis (major): major peak; for λ max Vis (major) / λ max Vis (minor) / Molal Absorpt. (ε) / λ max UV: test square; for λ max Vis (minor): minor peak; for Molal Absorpt. (ε): at λ max in the UV, ε=A/bm; for λ max UV: ultraviolet wavelength closest to the visible spectrum. The procedure: as §1
The photochromic test square polymerizates of Example 1 and Comparative Example 1 prepared in Part A were tested in a UV/Visible spectrophotometer to determine the lambda (λ) max (Vis) and the lambda max (UV) wavelengths. The lambda max (Vis) is the wavelength of the visible spectrum at which the maximum absorption of the activated (colored) form of the photochromic compound in a test square occurs. The lambda max (UV) is the wavelength of the ultraviolet range closest to the visible spectrum at which the absorption of the photochromic compound occurs.
The molal absorptivity or molal extinction coefficient (ε) reported in Table 2 is equal to the absorbance of the photochromic compound in a test square at the λ max in the UV (A) divided by the thickness of the test square in centimeters (b) multiplied by the concentration of the photochromic compound in the test square in moles per kilogram (m) according to the formula: ε=A/bm

Where [3] appears, read: in comparison to Comparative Example (CE) 1.

Regarding `COC(=O)c1c2c(c3ccccc3c1-c1ccccc1)OC(c1ccccc1)(c1ccccc1)C=C2` [CE 1, 2,2-diphenyl-5-methoxycarbonyl-6-phenyl-[2H]-naphtho[1,2-b]pyran, reference compound], in data set [1], the “ΔOD @ Saturation” value turned out to be 0.68, the “Sensitivity ΔOD/min” value is listed as 0.19 ΔOD/min and the “Bleach Rate T 1/2” value amounted to 3.83 min. In data set [2], the “λ max Vis (major)” value stood at 482 nm, the “λ max Vis (minor)” value is recorded as 407 nm, the “Molal Absorpt. (ε)” value is listed as 5709 and the “λ max UV” value turned out to be 346 nm.

As to `CCOC(=O)CC1(O)c2ccccc2-c2c1c1c(c3ccccc23)OC(c2ccccc2)(c2ccccc2)C=C1` (stereo not shown) [Example 1, 3,3-diphenyl-13-hydroxy-13-(2-oxo-2-ethoxyethyl)-1H-indeno[2,1-f]naphtho[1,2-b] pyran], in data set [1], the “bleach rate, i.e., fade rate (in words)” value was “acceptable bleach rate”; the “ΔOD @ Saturation” value is given as 1.0; the “Sensitivity ΔOD/min” value is given as 0.34 ΔOD/min; the “Bleach Rate T 1/2” value was determined as 5.63 min. Besides, in data set [1] (setting [3]), the “sensitivity, i.e., coloration rate (in words)” value is given as “greater sensitivity” and the “Δ OD at saturation, i.e., activated intensity (in words)” value was “higher Δ OD at saturation”. In data set [2], the “λ max Vis (major)” value is 536 nm, the “λ max Vis (minor)” value was determined as 425 nm, the “Molal Absorpt. (ε)” value is 12,218 and the “λ max UV” value is reported as 360 nm. In addition, the “molal absorptivity (ε) in the UV spectrum (in words)” value in data set [2] (in comparison to CE 1) is on record as “higher molal absorptivity”. The “λ max UV and λ max Vis of the major peak (in words)” value in data set [2] (in comparison to CE 1, bathochromic shift) was “higher λ max UV and λ max Vis of the major peak”.
